Where only a bound is given, the exact number is not on record here.

As for `CC1(C)OC(=O)[C@H](CC(=O)O)O1`, the melting point (in general, the temperature, or range, at which the solid turns liquid) lay within 108 to 110 °C.
Regarding `CC12CC(=O)C3C(CCC4CC(=O)CCC43C)C1CCC2C(=O)CO` (configuration not stated), the melting point was 164 to 170 °C.
The result for `CCn1cc(C(=O)O)c(=O)cc1-c1cccc(N)c1` reads 145 to 146 °C.
The result for `CCOc1cc2c(cc1OCC)C(CC)C(C)=NN=C2c1ccc(OC)c(OC)c1` (configuration not stated) reads 91 to 93 °C.
For the compound `CCOCCCn1cnc(-c2ccc(F)cc2)c1-c1ccncc1`, the melting point was 85 to 86 °C.
The result for `Cc1sc(N)nc1-c1ccc2c(c1)CC(=O)N2` reads above 250 °C.
The result for `Cc1ccc(C)n1-c1ccc([C@@H](O)CN2C(=O)c3ccccc3C2=O)cn1` reads 167 to 170 °C.
The result for `CC(=O)n1ncn(N=Cc2cccnc2)c1=O` reads 164 to 166 °C; that for `CCCc1nn(C)c2c(=O)[nH]c(-c3ccc(OC)c(OC)c3)nc12`, 210 to 212 °C; that for `Cn1nc(-c2c(F)cccc2Cl)nc1-c1ccc(COc2ncc(C(F)(F)F)cc2Cl)c(Cl)c1`, 47 to 49 °C.
Turning to `COC1OC(COCc2ccccc2)C(OCc2ccccc2)C(OCc2ccccc2)C1OCc1ccccc1` (configuration not stated), the melting point was in the range of 68 to 69 °C.
The result for `COc1cc2c(cc1OC)C(Oc1ccccc1)CN(CCCOc1ccccc1)CC2` (configuration not stated) reads 95 to 100 °C.
The compound `CCOC(=O)CC(=O)c1ccc(Cl)c(C)c1` registered a melting point of 50 to 51 °C.
The result for `O=c1[nH]c(COCc2ccccc2)nc2nccnc12` reads 157 to 159 °C; that for `Cc1oc(-c2ccccc2)nc1CCOc1ccc(C[C@@H](C(=O)O)N2CCN(S(=O)(=O)c3ccc([N+](=O)[O-])cc3)CC2)cc1`, 205 to 207 °C.
The result for `Cc1nc2ccc(N)cn2c(=O)c1CCCl` reads 185 °C.
Take `O=C(O)CCCCCCCCCCOc1cc(OCCCCCCCCCCC(=O)O)cc(C(=O)N(CC(=O)O)CC(=O)O)c1`: the melting point lay within 134 to 140 °C.
Regarding `CCC(C)(CC)NC(=S)Nc1cc(Cl)cc(Cl)c1`, the melting point was 128 to 132 °C.
The result for `COC(=O)c1cc2c3ccccc3n(Cc3ccccc3)c2s1` reads 158 to 159 °C; that for `CS(=O)(=O)Nc1cc2c(cc1Oc1ccccc1)C(=O)C(Br)CO2` (configuration not stated), 137 to 140 °C.
The result for `Cc1onc(-c2ccc(Cl)cc2)c1CO` reads 94 to 95 °C.
The result for `CCCSc1ncc(CC(=O)O)n1Cc1ccccc1Cl` reads 68 to 71 °C; that for `CCC(C)C(NC(=O)N1CCCCCC1)C(=O)NC(Cc1ccc(OCc2ccccc2)cc1)C(=O)OC(C)(C)C` (configuration not stated), 53 to 57 °C.
`COc1cccc(OC)c1C(=O)P(=O)(C(=O)c1c(OC)cccc1OC)c1ccccc1`: the melting point amounted to 155 °C.
Take `N#Cc1cc(F)ccc1Oc1ccc(-c2cn(C3CCOCC3)c3ncnc(N)c23)cc1`: the melting point lay within 216 to 217 °C.
For `CCOC(=NC(=O)c1ccc(Br)cc1)N1Cc2ccccc2-c2ccccc2C1`, the melting point lay within 116 to 117 °C.
The result for `O=Cc1cccc(/C=C/c2ccc3ccc(Cl)cc3n2)c1` reads 146 to 150 °C; that for `CCCCCCCCc1c(N)nc(-n2cccn2)nc1CC`, 62 to 63 °C; that for `COc1ccc(S(=O)(=O)C2(C(=O)NO)CCN(CC=C(C)C)CC2)cc1`, 142 to 145 °C.
The result for `OC(c1cc(F)ccc1F)c1ccncc1Cl` (configuration not stated) reads 169 to 170 °C; that for `COC(=O)c1cc2cc(Cl)c(Cl)cc2nc1Cl`, 178 to 180 °C; that for `CC(C#Cc1ccc(F)cc1)N(O)C(N)=O` (configuration not stated), 156 to 158 °C.
With `Cc1[nH]c(=O)[nH]c1C(=O)c1ccc(N2CCCCC2)cc1`, the melting point is 260 to 263 °C.
The result for `CCOC(=O)C(=O)Nc1ccc2ccccc2c1NC(=O)C(=O)OCC` reads 150 to 151 °C.
The compound `COc1ccc(Cn2c3ccccc3c3c(N)c4c(nc32)CC(c2ccccc2)CC4=O)cc1` (configuration not stated) returned a melting point of 163 to 165 °C.
The result for `OCC1(Cc2ccccc2)CCC2(CC1)OCCO2` reads 76 to 78 °C.
The result for `CCc1cc(NCc2ccc(-c3ccccc3C#N)cc2)n2ncc([N+](=O)[O-])c2n1` reads 205 to 207 °C; that for `CC1=CCc2cccc(OCC3CN(C(C)C)CCO3)c21` (configuration not stated), 114 to 116 °C; that for `CCOC(=O)C(F)(F)C(O)C(CC(C)C)NC(=O)OC(C)(C)C` (configuration not stated), 72 to 76 °C.
The result for `COc1cc(N2CCN(Cc3ccccc3)CC2)c2ncccc2c1C` reads 129 to 133 °C; that for `O=C(O)CCCC/C=C(\c1ccc(-c2nc(C(=O)NCCCCCOc3ccccc3)co2)cc1)c1cccnc1`, 42 to 48 °C; that for `COc1cc2c(cc1OCc1ccccc1)CCCC(=O)N2Cc1cc(OC)c(OC)c(OC)c1`, 129 to 130 °C.
The compound `COC(=O)Cn1c(C(=O)OCc2ccccc2)cc2cc(C)cc(C)c21` came in with a melting point of 91 to 93 °C.
The result for `COc1ccc(-c2c(C(=O)O)c3ccccc3n2C)cc1` reads 229 to 230 °C; that for `CS(=O)(=O)Nc1cc(C(F)(F)F)ccc1-c1cc(Oc2ccc3cccnc3c2)ncn1`, 203 to 204 °C.
With `Cc1c(C(=O)NCc2ccc3c(Br)c(OCc4nnn[nH]4)ccc3c2)oc2ccccc12`, the melting point is 212 to 215 °C.
As for `Cc1cc(C2=NNC(=O)CC2)c2c(c1)N(C)C(=O)CO2`, the melting point fell in the range of 266 to 270 °C.
Turning to `NS(=O)(=O)OCCOc1ccc(O)cc1`, the melting point is 92 to 93 °C.
As to `COc1ccc2c(Cc3c(Cl)cncc3Cl)nncc2c1C#CCCCc1ccccc1`, the melting point fell in the range of 130 to 132 °C.
With `CCOc1cc2ncc(C#N)c(Nc3cccc(F)c3)c2cc1OCC`, the melting point was 192 to 195 °C.
The result for `Cn1c2cc(OCCO)ccc2c2c3c(c(-c4ccccc4Cl)cc21)C(=O)NC3=O` reads 309 to 312 °C; that for `Cn1c(C(F)(F)F)cc(=O)n(-c2cc(N(S(C)(=O)=O)S(C)(=O)=O)c(Cl)cc2F)c1=O`, 282 to 285 °C; that for `Nc1c(F)c(N2CCC(C(N)c3cccnc3)C2)c(F)c2c1c(=O)c(C(=O)O)cn2C1CC1F` (configuration not stated), 123 to 126 °C.
The result for `CSc1nn2c(N)cc(Cl)nc2c1S(=O)(=O)c1ccccc1` reads above 230 °C; that for `CCCNC1=NS(=O)(=O)c2c(sc(C)c2C#N)N1C(=O)OCC`, 175 to 179 °C; that for `Cc1c(C(F)(F)C(F)(F)F)oc2c(Br)cccc12`, 65 °C.
The result for `COC(=O)C(C#N)=Cc1cc(OC)c(OC)cc1[N+](=O)[O-]` reads 162 to 164 °C.
In turn, `O=C(O)c1nn(-c2ccc(Cl)cc2Cl)c(-c2ccc(Cl)cc2)c1CF` returned a melting point of 60 to 80 °C.
For `Cc1nc(C)c(-c2ccnc(Nc3ccc(N4CCCCC4)c(C)c3)n2)s1`, the melting point lay in the range of 159 to 160 °C.
As for `COc1ccc(C(=O)c2ccc3cc(OC)ccc3c2-c2ccccc2)cc1`, the melting point lay in the range of 122 to 124 °C.
`COC(=O)COc1cccc2c(CCSC(c3ccc(Cl)cc3)c3ccc(Cl)cc3)coc12`: the melting point was in the range of 68 to 69 °C.
`Clc1ccc(Cl)c(CN2CCNc3ncc(-c4ccc(N5CCCC5)nc4)cc32)c1` registered a melting point above 200 °C.
Regarding `COC(=O)Cc1ccc(CNC(=O)C2Cc3ccccc3N2S(=O)(=O)c2ccc(-c3ccc(F)cc3C)cc2)cc1` (configuration not stated), the melting point was in the range of 71 to 75 °C.
The result for `BrCc1nc2cc3ccccc3cc2nc1CBr` reads 190 to 191 °C; that for `Cc1cc(/C=[N+](\[O-])C(C)C)cc(C)c1O`, 201 to 203 °C; that for `O=C(Nc1ccccn1)C(CC1CCCC1)c1ccc(S(=O)(=O)C(F)(F)F)cc1` (configuration not stated), 58 to 62 °C.
The result for `CCc1ccc(-c2ccc3c(c2)C=C(C(=O)Nc2ccc(CN(C)C4CCOCC4)cc2)CCO3)cc1` reads 181 to 182 °C; that for `CCOCc1nc2c(N)nc3cc(OCCOCc4ccccc4)ccc3c2n1CC(C)(C)O`, 131 to 132 °C.
Consider `CCCCCCCCCCCCCCCCOC(=O)Nc1ccc(NC(=O)NS(=O)(=O)c2ccc(OC)cc2)cc1`, for which the melting point is 185 °C.
The result for `O=c1[nH]c(=O)c2cc(Oc3ccc(F)cc3F)ncc2[nH]1` reads above 300 °C.
The result for `CCCOc1cccc2cc(-c3ccc4c(c3)C=C(C(=O)Nc3ccc(CN(C)C5CCOCC5)cc3)CCS4(=O)=O)oc12` reads 246 to 248 °C.
For the compound `CCCCCS(=O)(=O)NC(=O)CCc1ccc(OC(C)C)cc1OCc1ccc(Cl)cc1Cl`, the melting point is 120 °C.
The result for `CCOC(=O)C(C)Oc1ccc(Oc2cc3cc(Cl)ccc3nc2Cl)cc1` (configuration not stated) reads 56 °C.
The result for `COC1=C(Cl)C(=O)C(OC)=C(CCCCCC2=C(OC)C(=O)C(Cl)=C(OC)C2=O)C1=O` reads 79.8 to 80 °C; that for `NC(=NO)c1c(F)cccc1C(F)(F)F`, 155 to 157 °C; that for `COc1cc2c(cc1-c1ncco1)-c1c(-c3cncs3)c3c(n1CC2)C(=O)N(C(C)(C)C)CCCC3`, 205 to 207 °C.
The result for `CC(=Cc1ccc(Oc2ccc(Cl)cc2)cc1)[N+](=O)[O-]` reads 69 to 71 °C; that for `CC1(C)CC(=C(c2ccc(O)cc2)c2ccc(OCC(=O)O)cc2)CC(C)(C)C1`, 163 to 164 °C.
Consider `COC(=O)C(N)(CF)Cc1ccc(O)cc1` (configuration not stated), for which the melting point is 130 °C.
The result for `COc1cc(C(=O)O)c(Br)cc1C(=O)O` reads 275 °C; that for `CCOC(OCC)c1nc(C2CC2)nc(N)c1Cl`, 104 to 110 °C; that for `O=S(=O)(c1cccs1)N(CC(F)(F)F)c1cccc2cc(-c3nccs3)[nH]c12`, 194 to 195 °C.
In the case of `CCOC(=O)C1=Cc2cc(Cl)ccc2NC1C(F)(F)F` (configuration not stated), the melting point lay within 133 to 134 °C.
`CCOP(=O)(OCC)C(F)(F)c1ccc(NC(=O)CCc2oc(-n3cnc4ccccc43)nc2-c2ccc(Cl)cc2)cc1` came in with a melting point of 155 to 156 °C.
The result for `CN1OCCN(c2ccc(Cl)cc2Cl)C1=O` reads 94 to 95 °C; that for `CC(Oc1ccc(Cl)cc1Cl)c1ccnc2ncnn12` (configuration not stated), 137 to 138 °C; that for `Cc1nnc(CNC(=O)CN2C(=O)c3ccccc3C2=O)n1-c1ccc(Cl)cc1C(=O)c1ccccc1`, 251 to 253 °C.

For the origin of these results see a melting point compilation (Tetko et al.; mined from patent text by program, amines drawn as free bases though some values may be those of a salt).
